In US8258134B2, “Pyridazinone glucokinase activators” (Hoffmann-La Roche Inc., priority 2008, dated 2012):

Target: T1, Recombinant human liver GK1 (GST-GK) (Homo sapiens, UniProt P35557)
T1 construct: made in house; host or cells: E. coli
T1 sequence (P35557 1-466 isoform P35557-2): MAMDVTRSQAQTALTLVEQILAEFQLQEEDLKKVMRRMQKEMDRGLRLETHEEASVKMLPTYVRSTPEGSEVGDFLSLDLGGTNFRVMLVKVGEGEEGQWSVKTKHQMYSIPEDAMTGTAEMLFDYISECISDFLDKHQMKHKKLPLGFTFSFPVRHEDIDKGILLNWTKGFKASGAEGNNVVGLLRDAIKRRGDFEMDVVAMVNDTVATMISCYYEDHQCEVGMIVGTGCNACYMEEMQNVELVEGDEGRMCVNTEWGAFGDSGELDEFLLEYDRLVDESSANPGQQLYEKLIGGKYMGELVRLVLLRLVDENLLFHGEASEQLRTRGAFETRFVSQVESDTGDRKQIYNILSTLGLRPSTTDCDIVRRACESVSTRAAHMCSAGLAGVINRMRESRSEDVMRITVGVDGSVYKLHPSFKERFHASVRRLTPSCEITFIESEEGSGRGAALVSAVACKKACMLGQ
Test: Glucokinase in vitro assay (G6PDH-coupled NADH generation, OD340)
Assay type: biochemical
Settings: 5 mM D-glucose; for SC1.5 average (concentration of activator that produced a 50% increase in the activity of GK): 30° C., pH 7.1, 10% DMSO; for fold activation @ 30 uM: 30 uM test compound
Procedure, shortened: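 GST-tagged recombinant GK1 expressed in E. coli, run at 30° C, pH 7.1 Hepes with 5 mM D-glucose, 1 mM ATP and 1.8 mM NAD, G6PDH-coupled. Compounds were in 10% DMSO final, with a 10 min pre-incubation before enzyme addition. OD340/min rate measured; SC1.5 is the activator concentration giving a 50% increase in activity.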

Cc1ccc(Oc2cnn(C(CC3CCCCC3)C(=O)Nc3ccn(CC(C)(C)O)n3)c(=O)c2)c(C)c1 (stereo not drawn) [Example 117, 3-Cyclohexyl-2-[4-(2,4-dimethyl-phenoxy)-6-oxo-6H-pyridazin-1-yl]-N-[1-(2-hydroxy-2-methyl-propyl)-1H-pyrazol-3-yl]-propionamide]
SC1.5 average (concentration of activator that produced a 50% increase in the activity of GK): 0.352 µM

COc1ccc(Oc2cnn(C(CC3CCCCC3)C(=O)Nc3ccn(CC(C)(C)O)n3)c(=O)c2)c(Cl)c1 (stereo not drawn) [Example 118, 2-[4-(2-Chloro-4-methoxy-phenoxy)-6-oxo-6H-pyridazin-1-yl]-3-cyclohexyl-N-[1-(2-hydroxy-2-methyl-propyl)-1H-pyrazol-3-yl]-propionamide]
SC1.5 average (concentration of activator that produced a 50% increase in the activity of GK): 0.237 µM

CC(C)(O)Cn1ccc(NC(=O)C(CC2CCCCC2)n2ncc(Oc3ccc(OC(F)(F)F)cc3Cl)cc2=O)n1 (stereo not drawn) [Example 119, 2-[4-(2-Chloro-4-trifluoromethoxy-phenoxy)-6-oxo-6H-pyridazin-1-yl]-3-cyclohexyl-N-[1-(2-hydroxy-2-methyl-propyl)-1H-pyrazol-3-yl]-propionamide]
SC1.5 average (concentration of activator that produced a 50% increase in the activity of GK): 0.811 µM

CCOc1ccc(F)c(Oc2cnn(C(CC(C)C)C(=O)Nc3ccn(C[C@@H](O)CO)n3)c(=O)c2)c1F (stereo partly drawn) [Example 120, 2-[4-(3-ethoxy-2,6-difluoro-phenoxy)-6-oxo-6H-pyridazin-1-yl]-4-methyl-pentanoic acid [1-((R)-2,3-dihydroxy-propyl)-1H-pyrazol-3-yl]-amide]
SC1.5 average (concentration of activator that produced a 50% increase in the activity of GK): 0.18 µM

CCOc1ccc(F)c(Oc2cnn(C(CC3CCOCC3)C(=O)Nc3ccn(C[C@@H](O)CO)n3)c(=O)c2)c1F (stereo partly drawn) [Example 121, N-[1-((R)-2,3-Dihydroxy-propyl)-1H-pyrazol-3-yl]-2-[4-(3-ethoxy-2,6-difluoro-phenoxy)-6-oxo-6H-pyridazin-1-yl]-3-(tetrahydro-pyran-4-yl)-propionamide]
SC1.5 average (concentration of activator that produced a 50% increase in the activity of GK): 0.088 µM

CC(C)CC(C(=O)Nc1ccn(C[C@@H](O)CO)n1)n1ncc(Nc2ccccc2Cl)cc1=O (stereo partly drawn) [Example 122, 2-[4-(2-Chloro-phenylamino)-6-oxo-6H-pyridazin-1-yl]-4-methyl-pentanoic acid [1-((R)-2,3-dihydroxy-propyl)-1H-pyrazol-3-yl]-amide]
fold activation @ 30 uM: 1.36 fold | SC1.5 average (concentration of activator that produced a 50% increase in the activity of GK): > 30 µM

CC(C)(O)Cn1ccc(NC(=O)C(CC2CCCC2)n2ncc(Sc3ccccc3)cc2=O)n1 (stereo not drawn) [Example 123, 3-Cyclopentyl-N-[1-(2-hydroxy-2-methyl-propyl)-1H-pyrazol-3-yl]-2-(6-oxo-4-phenylsulfanyl-6H-pyridazin-1-yl)-propionamide]
SC1.5 average (concentration of activator that produced a 50% increase in the activity of GK): 0.441 µM

CC(C)(O)Cn1ccc(NC(=O)C(CC2CCCC2)n2ncc([S+]([O-])c3ccccc3)cc2=O)n1 (stereo not drawn) [Example 124, 2-(4-Benzenesulfinyl-6-oxo-6H-pyridazin-1-yl)-3-cyclopentyl-N-[1-(2-hydroxy-2-methyl-propyl)-1H-pyrazol-3-yl]-propionamide]
SC1.5 average (concentration of activator that produced a 50% increase in the activity of GK): 2.461 µM

CC(C)(O)Cn1ccc(NC(=O)C(CC2CCCC2)n2ncc(S(=O)(=O)c3ccccc3)cc2=O)n1 (stereo not drawn) [Example 125, 2-(4-Benzenesulfonyl-6-oxo-6H-pyridazin-1-yl)-3-cyclopentyl-N-[1-(2-hydroxy-2-methyl-propyl)-1H-pyrazol-3-yl]-propionamide]
SC1.5 average (concentration of activator that produced a 50% increase in the activity of GK): 2.611 µM

CC(C)CC(C(=O)Nc1ccn(C[C@@H](O)CO)n1)n1ncc(Oc2cccc(C(F)(F)F)c2Cl)cc1=O (stereo partly drawn) [Example 126, 2-[4-(2-Chloro-3-trifluoromethyl-phenoxy)-6-oxo-6H-pyridazin-1-yl]-4-methyl-pentanoic acid [1-((R)-2,3-dihydroxy-propyl)-1H-pyrazol-3-yl]-amide]
SC1.5 average (concentration of activator that produced a 50% increase in the activity of GK): 1.221 µM

COc1cccc(Oc2cnn(C(CC(C)C)C(=O)Nc3ccn(C[C@@H](O)CO)n3)c(=O)c2)c1Cl (stereo partly drawn) [Example 127, 2-[4-(2-Chloro-3-methoxy-phenoxy)-6-oxo-6H-pyridazin-1-yl]-4-methyl-pentanoic acid [1-((R)-2,3-dihydroxy-propyl)-1H-pyrazol-3-yl]-amide]
SC1.5 average (concentration of activator that produced a 50% increase in the activity of GK): 0.334 µM

O=C(Nc1ccn(C[C@@H](O)CO)n1)C(CC1CCCC1)n1ncc(Oc2ccccc2Cl)cc1=O (stereo partly drawn) [Example 128, 2-[4-(2-Chloro-phenoxy)-6-oxo-6H-pyridazin-1-yl]-3-cyclopentyl-N-[1-((R)-2,3-dihydroxy-propyl)-1H-pyrazol-3-yl]-propionamide]
SC1.5 average (concentration of activator that produced a 50% increase in the activity of GK): 0.093 µM

CC(C)(O)Cn1ccc(NC(=O)C(CC2CCOCC2)n2ncc(Oc3ccccc3Cl)c(Cl)c2=O)n1 (stereo not drawn) [Example 129, 2-[5-Chloro-4-(2-chloro-phenoxy)-6-oxo-6H-pyridazin-1-yl]-N-[1-(2-hydroxy-2-methyl-propyl)-1H-pyrazol-3-yl]-3-(tetrahydro-pyran-4-yl)-propionamide]
SC1.5 average (concentration of activator that produced a 50% increase in the activity of GK): 1.006 µM

CC(C)(O)Cn1ccc(NC(=O)C(CC2CCCCC2)n2ncc(Oc3ccc(OC(F)(F)F)cc3Cl)c(Cl)c2=O)n1 (stereo not drawn) [Example 130, 2-[5-Chloro-4-(2-chloro-4-trifluoromethoxy-phenoxy)-6-oxo-6H-pyridazin-1-yl]-3-cyclohexyl-N-[1-(2-hydroxy-2-methyl-propyl)-1H-pyrazol-3-yl]-propionamide]
SC1.5 average (concentration of activator that produced a 50% increase in the activity of GK): 10.224 µM

CC(=O)OC(C)Cn1nc(NC(=O)C(CC2CCOCC2)n2ncc(Oc3c(F)cccc3F)cc2=O)cc1C (stereo not drawn) [Example 131, Acetic acid 2-{3-[2-[4-(2,6-difluoro-phenoxy)-6-oxo-6H-pyridazin-1-yl]-3-(tetrahydro-pyran-4-yl)-propionylamino]-5-methyl-pyrazol-1-yl}-1-methyl-ethyl ester]
fold activation @ 30 uM: 1.18 fold | SC1.5 average (concentration of activator that produced a 50% increase in the activity of GK): > 30 µM

Cc1cc(NC(=O)C(CC2CCOCC2)n2ncc(Oc3c(F)cccc3F)cc2=O)nn1CC(C)O (stereo not drawn) [Example 132, 2-[4-(2,6-Difluoro-phenoxy)-6-oxo-6H-pyridazin-1-yl]-N-[1-(2-hydroxy-propyl)-5-methyl-1H-pyrazol-3-yl]-3-(tetrahydro-pyran-4-yl)-propionamide]
fold activation @ 30 uM: 1.18 fold | SC1.5 average (concentration of activator that produced a 50% increase in the activity of GK): > 30 µM

CC(C)(O)Cn1ccc(NC(=O)C(CC2CCCCC2)n2ncc(Oc3cccc4c3OCCO4)cc2=O)n1 (stereo not drawn) [Example 133, 3-Cyclohexyl-2-[4-(2,3-dihydro-benzo[1,4]dioxin-5-yloxy)-6-oxo-6H-pyridazin-1-yl]-N-[1-(2-hydroxy-2-methyl-propyl)-1H-pyrazol-3-yl]-propionamide]
SC1.5 average (concentration of activator that produced a 50% increase in the activity of GK): 0.135 µM

CC(C)CC(C(=O)Nc1ccn(CC(C)(C)O)n1)n1ncc(Oc2ccccc2Cl)cc1=O (stereo not drawn) [Example 134, 2-[4-(2-Chloro-phenoxy)-6-oxo-6H-pyridazin-1-yl]-4-methyl-pentanoic acid [1-(2-hydroxy-2-methyl-propyl)-1H-pyrazol-3-yl]-amide]
SC1.5 average (concentration of activator that produced a 50% increase in the activity of GK): 0.693 µM

CC(C)(O)Cn1ccc(NC(=O)C(CC2CCOCC2)n2ncc(Oc3ccccc3Cl)cc2=O)n1 (stereo not drawn) [Example 135, 2-[4-(2-Chloro-phenoxy)-6-oxo-6H-pyridazin-1-yl]-N-[1-(2-hydroxy-2-methyl-propyl)-1H-pyrazol-3-yl]-3-(tetrahydro-pyran-4-yl)-propionamide]
SC1.5 average (concentration of activator that produced a 50% increase in the activity of GK): 0.235 µM

CC(C)(O)Cn1ccc(NC(=O)C(CC2CCCCC2)n2ncc(Oc3ccccc3)c(Cl)c2=O)n1 (stereo not drawn) [Example 136, 2-(5-Chloro-6-oxo-4-phenoxy-6H-pyridazin-1-yl)-3-cyclohexyl-N-[1-(2-hydroxy-2-methyl-propyl)-1H-pyrazol-3-yl]-propionamide]
SC1.5 average (concentration of activator that produced a 50% increase in the activity of GK): 1.17 µM

CC(C)CC(C(=O)Nc1ccn(C[C@@H](O)CO)n1)n1ncc(Oc2ccccc2Cl)cc1=O (stereo partly drawn) [Example 137, 2-[4-(2-Chloro-phenoxy)-6-oxo-6H-pyridazin-1-yl]-4-methyl-pentanoic acid [1-((R)-2,3-dihydroxy-propyl)-1H-pyrazol-3-yl]-amide]
SC1.5 average (concentration of activator that produced a 50% increase in the activity of GK): 0.731 µM
